In ChEMBL document CHEMBL4673317, “Linearolactone and Kaempferol Disrupt the Actin Cytoskeleton in Entamoeba histolytica: Inhibition of Amoebic Liver Abscess Development” (J Nat Prod, 2020):
Calls of active or inactive are those of the source. The rule behind the calls is not given here.

Tests used:
Entamoeba histolytica [1] = assay: Antimicrobial activity against Entamoeba histolytica […] trophozoites infected in Syrian hamster assessed as inhibition of amoebic liver abscess by measuring vascular congestion at 0.5 mg/kg, ip at 4 days post infection and measured on day 8 by H and E staining based microscopic method; format: functional, organism-based; conditions: HM-1:IMSS, time 4.0 day
Entamoeba histolytica [2] = assay: Antimicrobial activity against Entamoeba histolytica […] trophozoites infected in Syrian hamster assessed as glucose level at 0.05 mg/kg, ip at 4 days post infection and measured on day 8 (reference value: 126 +/- 18 mg/dl); format: functional, HM-1:IMSS; conditions: time 4 day
Entamoeba histolytica [3] = assay: Antimicrobial activity against Entamoeba histolytica […] trophozoites infected in Syrian hamster assessed as creatinine level at 0.05 mg/kg, ip at 4 days post infection and measured on day 8 (reference value: 0.9 +/- 0.06 mg/dl); format: functional, HM-1:IMSS; conditions: time 4 day
Entamoeba histolytica [4] = assay: Induction of ROS generation in Entamoeba histolytica […] trophozoites at IC50 concentration incubated for 1 hr in presence of trolox by DCFDA staining based assay relative to control; format: functional, HM-1:IMSS
Entamoeba histolytica [5] = assay: Antimicrobial activity against Entamoeba histolytica […] trophozoites infected in Syrian hamster assessed as ALT level at 0.05 mg/kg, ip at 4 days post infection and measured on day 8 (reference value: 276 +/- 24 U/L); format: functional, HM-1:IMSS; conditions: time 4 day
Entamoeba histolytica [6] = assay: Antimicrobial activity against Entamoeba histolytica […] trophozoites infected in Syrian hamster assessed as urea level at 0.05 mg/kg, ip at 4 days post infection and measured on day 8 (reference value: 14 +/- 1 mg/dl); format: functional, HM-1:IMSS; conditions: time 4 day
Entamoeba histolytica [7] = assay: Antimicrobial activity against Entamoeba histolytica […] trophozoites infected in Syrian hamster assessed as triglycerides level at 0.05 mg/kg, ip at 4 days post infection and measured on day 8 (reference value: 395 +/- 41 mg/dl); format: functional, HM-1:IMSS; conditions: time 4 day
Giardia intestinalis = assay: Antigiardial activity against Giardia lamblia WB infected in ig dosed CD-1 mouse assessed as reduction in parasite growth after 8 days; format: functional; conditions: Giardia duodenalis, po, 192 h, time 8 day
CHO-K1 = assay: Cytotoxicity against CHO-K1 cells assessed as reduction in cell viability after 24 hrs by MTT assay; format: cell-based; conditions: Cricetulus griseus, CHO-K1, 24 h
Entamoeba histolytica [8] = assay: Induction of apoptosis in Entamoeba histolytica […] trophozoites assessed as necrotic cells at IC50 concentration after 48 hrs by annexin-V-FITC/propidium iodide staining based flow cytometric analysis (reference value: 0.4%); format: functional, HM-1:IMSS
Entamoeba histolytica [9] = assay: Antimicrobial activity against Entamoeba histolytica […] trophozoites infected in Syrian hamster assessed as inhibition of amoebic liver abscess at 0.5 mg/kg, ip at 4 days post infection and measured on day 8 by NMR analysis; format: functional, organism-based; conditions: HM-1:IMSS, time 4.0 day
Entamoeba histolytica [10] = assay: Antimicrobial activity against Entamoeba histolytica […] trophozoites infected in Syrian hamster assessed as platelets at 0.05 mg/kg, ip at 4 days post infection and measured on day 8 (reference value: 439 +/- 108 […]); format: functional, HM-1:IMSS; conditions: time 4 day
Entamoeba histolytica [11] = assay: Antimicrobial activity against Entamoeba histolytica […] trophozoites assessed as decrease in size of cells at IC50 concentration after 48 hrs by uranyl acetate staining based TEM analysis; format: functional, organism-based; conditions: HM-1:IMSS
Entamoeba histolytica [12] = assay: Induction of apoptosis in Entamoeba histolytica […] trophozoites assessed as viable cells at IC50 concentration after 48 hrs by annexin-V-FITC/propidium iodide staining based flow cytometric analysis (reference value: 98%); format: functional, HM-1:IMSS
Entamoeba histolytica [13] = assay: Binding affinity to Entamoeba histolytica […] trophozoites actin assessed as induction of polarization of polymerized actin at IC50 concentration incubated for 1 hrs by […] staining based confocal microscopic analysis
Entamoeba histolytica [14] = assay: Antimicrobial activity against Entamoeba histolytica […] trophozoites infected in Syrian hamster assessed as total leukocytes at 0.05 mg/kg, ip at 4 days post infection and measured on day 8 (reference value: 18 +/- 16 […]/mm3); format: functional, HM-1:IMSS; conditions: time 4 day
Entamoeba histolytica [15] = assay: Antimicrobial activity against Entamoeba histolytica HM1:MMS assessed as reduction in amoeba growth; format: functional, organism-based; conditions: HM-1:IMSS
Entamoeba histolytica [16] = assay: Antimicrobial activity against Entamoeba histolytica […] trophozoites infected in Syrian hamster assessed as inhibition of amoebic liver abscess by abundant monocytes at 0.5 mg/kg, ip at 4 days post infection and measured on day 8 by H and E staining based microscopic method; format: functional, organism-based; conditions: HM-1:IMSS, time 4.0 day
Entamoeba histolytica [17] = assay: Induction of apoptosis in Entamoeba histolytica […] trophozoites assessed as late apoptotic cells at IC50 concentration after 48 hrs by annexin-V-FITC/propidium iodide staining based flow cytometric analysis (reference value: 0.7%); format: functional, HM-1:IMSS
Entamoeba histolytica [18] = assay: Antimicrobial activity against Entamoeba histolytica […] trophozoites infected in Syrian hamster assessed as inhibition of amoebic liver abscess by measuring edema at 0.5 mg/kg, ip at 4 days post infection and measured on day 8 by H and E staining based microscopic method; format: functional, organism-based; conditions: HM-1:IMSS, time 4.0 day
BEAS-2B = assay: Cytotoxicity against human BEAS-2B cells assessed as reduction in cell viability after 24 hrs by MTT assay; format: cell-based
Entamoeba histolytica [19] = assay: Antimicrobial activity against Entamoeba histolytica […] trophozoites assessed as abnormal condensation of chromatin at IC50 concentration after 48 hrs by uranyl acetate staining based TEM analysis; format: functional, organism-based; conditions: HM-1:IMSS
Entamoeba histolytica [20] = assay: Antimicrobial activity against Entamoeba histolytica […] trophozoites infected in Syrian hamster assessed as ALP level at 0.05 mg/kg, ip at 4 days post infection and measured on day 8 (reference value: 638 +/- 50 U/L); format: functional, HM-1:IMSS; conditions: time 4 day
Entamoeba histolytica [21] = assay: Induction of apoptosis in Entamoeba histolytica […] trophozoites assessed as early apoptotic cells at IC50 concentration after 48 hrs by annexin-V-FITC/propidium iodide staining based flow cytometric analysis (reference value: 0.9%); format: functional, HM-1:IMSS
Entamoeba histolytica [22] = assay: Induction of ROS generation in Entamoeba histolytica […] trophozoites at IC50 concentration incubated for 1 hr by DCFDA staining based assay; format: functional, organism-based; conditions: HM-1:IMSS
Entamoeba histolytica [23] = assay: Antimicrobial activity against Entamoeba histolytica […] trophozoites infected in Syrian hamster assessed as blood ureic nitrogen level at 0.05 mg/kg, ip at 4 days post infection and measured on day 8 (reference value: […]); format: functional, HM-1:IMSS; conditions: time 4 day
Entamoeba histolytica [24] = assay: Antimicrobial activity against Entamoeba histolytica […] trophozoites assessed as decrease in granularity at IC50 concentration after 48 hrs by uranyl acetate staining based TEM analysis; format: functional, organism-based; conditions: HM-1:IMSS
Entamoeba histolytica [25] = assay: Antimicrobial activity against Entamoeba histolytica […] trophozoites assessed as decrease in number of vacuoles at IC50 concentration after 48 hrs by uranyl acetate staining based TEM analysis; format: functional, organism-based; conditions: HM-1:IMSS
Entamoeba histolytica [26] = assay: Antimicrobial activity against Entamoeba histolytica […] trophozoites infected in Syrian hamster assessed as total bilirubin level at 0.05 mg/kg, ip at 4 days post infection and measured on day 8 (reference value: 0.8 +/- 0.2 mg/dl); format: functional, HM-1:IMSS; conditions: time 4 day
Entamoeba histolytica [27] = assay: Binding affinity to Entamoeba histolytica […] trophozoites actin assessed as formation of pseudo-plates at IC50 concentration incubated for 1 hrs by […] staining based confocal microscopic analysis
Entamoeba histolytica [28] = assay: Antimicrobial activity against Entamoeba histolytica […] trophozoites infected in Syrian hamster assessed as triglycerides level at 0.1 mg/kg, ip at 4 days post infection and measured on day 8 (reference value: 395 +/- 41 mg/dl); format: functional, HM-1:IMSS; conditions: time 4 day
Entamoeba histolytica [29] = assay: Antimicrobial activity against Entamoeba histolytica […] trophozoites infected in Syrian hamster assessed as glucose level at 0.1 mg/kg, ip at 4 days post infection and measured on day 8 (reference value: 126 +/- 18 mg/dl); format: functional, HM-1:IMSS; conditions: time 4 day
Entamoeba histolytica [30] = assay: Antimicrobial activity against Entamoeba histolytica […] trophozoites infected in Syrian hamster assessed as ALT level at 0.1 mg/kg, ip at 4 days post infection and measured on day 8 (reference value: 276 +/- 24 U/L); format: functional, HM-1:IMSS; conditions: time 4 day
Entamoeba histolytica [31] = assay: Antimicrobial activity against Entamoeba histolytica […] trophozoites infected in Syrian hamster assessed as platelets at 0.1 mg/kg, ip at 4 days post infection and measured on day 8 (reference value: 439 +/- 108 […]); format: functional, HM-1:IMSS; conditions: time 4 day
Entamoeba histolytica [32] = assay: Antimicrobial activity against Entamoeba histolytica […] trophozoites infected in Syrian hamster assessed as ALP level at 0.1 mg/kg, ip at 4 days post infection and measured on day 8 (reference value: 638 +/- 50 U/L); format: functional, HM-1:IMSS; conditions: time 4 day
Entamoeba histolytica [33] = assay: Antimicrobial activity against Entamoeba histolytica […] trophozoites infected in Syrian hamster assessed as creatinine level at 0.1 mg/kg, ip at 4 days post infection and measured on day 8 (reference value: 0.9 +/- 0.06 mg/dl); format: functional, HM-1:IMSS; conditions: time 4 day
Entamoeba histolytica [34] = assay: Antimicrobial activity against Entamoeba histolytica […] trophozoites infected in Syrian hamster assessed as total bilirubin level at 0.1 mg/kg, ip at 4 days post infection and measured on day 8 (reference value: 0.8 +/- 0.2 mg/dl); format: functional, HM-1:IMSS; conditions: time 4 day
Entamoeba histolytica [35] = assay: Antimicrobial activity against Entamoeba histolytica […] trophozoites infected in Syrian hamster assessed as blood ureic nitrogen level at 0.1 mg/kg, ip at 4 days post infection and measured on day 8 (reference value: […]); format: functional, HM-1:IMSS; conditions: time 4 day
Entamoeba histolytica [36] = assay: Antimicrobial activity against Entamoeba histolytica […] trophozoites infected in Syrian hamster assessed as urea level at 0.1 mg/kg, ip at 4 days post infection and measured on day 8 (reference value: 14 +/- 1 mg/dl); format: functional, HM-1:IMSS; conditions: time 4 day

O=c1c(O)c(-c2ccc(O)cc2)oc2cc(O)cc(O)c12 [KAEMPFEROL]
inhibition (Entamoeba histolytica [1]): Active | Activity (Entamoeba histolytica [2]): 58 mg/dL | Activity (Entamoeba histolytica [3]): 0.5 mg/dL | Activity (Entamoeba histolytica [4]): 33.36% | Activity (Entamoeba histolytica [5]): 55 U/L | Activity (Entamoeba histolytica [6]): 42 mg/dL | Activity (Entamoeba histolytica [7]): 442 mg/dL | ED50 (Giardia intestinalis): 2.06 µmol/kg | IC50 (CHO-K1): 240 µM | Activity (Entamoeba histolytica [8]): 2.4% | inhibition (Entamoeba histolytica [9]): Active | Activity (Entamoeba histolytica [10]): 679 thousand/mm3 | Activity (Entamoeba histolytica [11]): Active | Activity (Entamoeba histolytica [12]): 87.3% | Activity (Entamoeba histolytica [13]): Active | Activity (Entamoeba histolytica [14]): 19 thousand/mm3 | IC50 (Entamoeba histolytica [15]): 0.23 µM | inhibition (Entamoeba histolytica [16]): Active | Activity (Entamoeba histolytica [17]): 6.1% | inhibition (Entamoeba histolytica [18]): Active | IC50 (BEAS-2B): 350 µM | Activity (Entamoeba histolytica [19]): Active | Activity (Entamoeba histolytica [20]): 348 U/L | Activity (Entamoeba histolytica [21]): 4.2% | Activity (Entamoeba histolytica [22]): Active | Activity (Entamoeba histolytica [23]): 19 mg/dL | Activity (Entamoeba histolytica [24]): Active | Activity (Entamoeba histolytica [25]): Active | Activity (Entamoeba histolytica [26]): 0.4 mg/dL

Cc1ncc([N+](=O)[O-])n1CCO [METRONIDAZOLE]
Activity (Entamoeba histolytica [27]): Active | Activity (Entamoeba histolytica [28]): 335 mg/dL | Activity (Entamoeba histolytica [4]): 49.11% | IC50 (CHO-K1): 2920 µM | Activity (Entamoeba histolytica [8]): 0.3% | Activity (Entamoeba histolytica [29]): 148 mg/dL | Activity (Entamoeba histolytica [11]): Active | Activity (Entamoeba histolytica [12]): 91.3% | Activity (Entamoeba histolytica [30]): 159 U/L | Activity (Entamoeba histolytica [31]): 616 thousand/mm3 | IC50 (Entamoeba histolytica [15]): 22.9 µM | Activity (Entamoeba histolytica [32]): 185 U/L | Activity (Entamoeba histolytica [17]): 2.9% | Activity (Entamoeba histolytica [33]): 1 mg/dL | Activity (Entamoeba histolytica [34]): 0.8 mg/dL | IC50 (BEAS-2B): 2240 µM | Activity (Entamoeba histolytica [19]): Active | Activity (Entamoeba histolytica [35]): 19 mg/dL | Activity (Entamoeba histolytica [21]): 5.5% | Activity (Entamoeba histolytica [22]): Active | Activity (Entamoeba histolytica [36]): 41 mg/dL | Activity (Entamoeba histolytica [24]): Active
